Data set [1] deals with tyrosinase. As to the kind of experiment: Inhibitory action of pretreated (hydrolyzed) 3-acyloxy-4(H)-pyran-4-one on tyrosinase activity. The class given is biochemical. The following applies: 1.0% solution pretreated by hydrolysis at pH 11.0 or 2.0, 70° C., 30 minutes; L-tyrosine, pH 6.8, 37° C., absorbance at 475 mμ. The protocol:
3-Acetoxy-4(H)-pyran-4-one was dissolved in ethanol, and the solution was adjusted to pH 6.0 with succinic acid or potassium carbonate to give a 1.0% 3-acetoxy-4(H)-pyran-4-one solution.
As the pretreatment, two samples (each 10 ml) were taken from the solution. To the two samples were added 1% Na2 CO3 and 0.01% HCl to adjust the pH to 11.0 and 2.0, respectively. The adjusted samples were hydrolyzed by heating at 70° C. with stirring for 30 minutes.
To a test tube were added 1 ml of a L-tyrosine solution (0.3 mg/ml), 1 ml of McIlvaine's buffer solution (pH 6.8) and 0.9 ml of the 3-acetoxy-4(H)-pyran-4-one solution pretreated as described above. The mixture was incubated at 37° C. for 10 minutes, and 0.1 ml of a tyrosinase solution (1 mg/ml) was added thereto and stirred thoroughly. The absorbance at 475 mμ was immediately determined by a spectrophotometer with time. On the other hand, the absorbance of water was determined similarly with time as a control.

Data set [2] deals with purified bacterial lipase. As to the kind of experiment: Enzymatic hydrolysis of acyl compounds by purified bacterial lipase (ferric chloride coloring). The class given is in vitro ADME. The following applies: 0.05M substrate emulsion, 37° C., 1 hr. More on the design: key: +: light wine color; ++: deep wine color; +++: dark wine color; --: no coloration; ±: indistinct coloration. The procedure:
(§1) (1) Substrate solution: A solution containing 2% polyvinyl alcohol in M/15 phosphate buffer solution (pH 7.0) was prepared. The respective acyl compounds were added to the solution in a concentration of 0.05M and homogenized in a homogenizer to give emulsions.
(§2) (2) Enzymatic solution: 30 mg of purified bacterial lipase was dissolved in 100 ml of water. As an organic crude enzymatic solution, there was used a triturated solution of a shaved skin and pancreas of a rat weighing about 200 g.
(§3) (3) The compositions were as follows:
(§4) The composition was incubated at 37° C. for 1 hr, and the reaction was stopped by 5% metaphosphoric acid. 0.5 ml of ferric chloride reagent (0.1% aqueous solution) was added to 5 ml of the supernatant liquid after the centrifugal precipitation to observe the coloring (wine color) thereof.

In data set [3] the test system is triturated solution of a shaved skin of a rat. As to the kind of experiment: Enzymatic hydrolysis of acyl compounds by rat skin homogenate (ferric chloride coloring). The class given is in vitro ADME. More on the design: key: +: light wine color; ++: deep wine color; +++: dark wine color; --: no coloration; ±: indistinct coloration. The following applies: 0.05M substrate emulsion, 37° C., 1 hr. The protocol: as §1, §2, §3, §4

Data set [4] deals with triturated solution of pancreas of a rat. As to the kind of experiment: Enzymatic hydrolysis of acyl compounds by rat pancreas homogenate (ferric chloride coloring). The class given is in vitro ADME. More on the design: key: +: light wine color; ++: deep wine color; +++: dark wine color; --: no coloration; ±: indistinct coloration. To be noted: 0.05M substrate emulsion, 37° C., 1 hr. The procedure:
as §1, §2, §3, §4

The subject of data set [5] is tyrosinase. As to the kind of experiment: Inhibitory action on tyrosinase activity (absorbance at 475 mμ with time). It is filed as biochemical. The following applies: 40 μg in 0.9 ml test solution, L-tyrosine, pH 6.8, 37° C., absorbance at 475 mμ with time (FIG. 1). The protocol: To a test tube were added 0.9 ml of a test solution, containing 40 μg of pyranone described above, which solution was obtained by adding the pyranone to 30% aqueous solution of propylene glycol; 1 ml of L-tyrosine solution (0.3 mg/ml); and 1 ml McIlvaine's buffer solution (pH 6.8), and the mixture was incubated at 37° C. for 10 minutes. 0.1 ml of a tyrosinase solution (1 mg/ml) was then added to the incubated mixture and stirred thoroughly. The absorbance at 475 mμ of the mixture was immediately measured by a spectrophotometer with time. As a control, the absorbance at 475 mμ of a 30% aqueous solution of propylene glycol instead of the above test solution was measured with time.
FIG. 1 is a graph to illustrate the effect described above, and agreement of the line showing the absorbance in the case of 3-hydroxy-4(H)-pyran-4-one with the abscissa (time) of the graph clearly indicates the remarkable effect of the 3-hydroxy-4(H)-pyran-4-one.

The test system of the next data set is melasma on human face. As to the kind of experiment: Action on the melanization in the human skin (melasma, ointment application). It is filed as in vivo. To be noted: 3 times a day, 3 months, 10 volunteers. The source says: Action of 3-hydroxy-4(H)-pyran-4-one and acyl derivatives thereof on the melanization in the human skin.
The test substance was mixed and dissolved in a hydrophilic ointment according to the Japanese Pharmacopoeia and applied to a melasma on one side of each human face 3 times a day. In the control, only the hydrophilic ointment was applied to a melasma on the other side of the human face in the similar way.

The nature of data set [6]: Germicidal action and antibiotic-like action.
Another data set can be described thus: Reducing action. It is filed as physicochemical.

Molecules are shown by their SMILES.

As to `CC(=O)Oc1coccc1=O` [3-acetoxy-4(H)-pyran-4-one, 3-Acetoxy-4(H)-pyran-4-one], in the data set with tyrosinase [1], the “Inhibitory action on tyrosinase activity” value is on record as “Results similar to those of the 3-hydroxy-4(H)-pyran-4-one”. Also, in data set [2], the “Ratio of formation of 3-hydroxy-4(H)--pyran-4-one, Bacterial lipase (purified)” value is “+”. The “Ratio of formation of 3-hydroxy-4(H)--pyran-4-one, Homogenate Rat's skin” value in data set [3] is listed as “+++”. Moreover, the “Ratio of formation of 3-hydroxy-4(H)--pyran-4-one, Homogenate Rat's pancreas” value in data set [4] is given as “+++”.

In the case of `O=c1ccocc1O` [3-hydroxy-4(H)-pyran-4-one], the “Inhibitory action on tyrosinase activity” value in the data set on tyrosinase [5] was “stronger inhibitory action on the tyrosinase activity than 3-hydroxy-chromone (chromonol) and kojic acid, and a far stronger inhibitory action than vitamin C”. In addition, in the data set on melasma on human face (0.5% in hydrophilic ointment), the “Results: Effective (number of volunteers)” value (“Results: Effective” below) came out at 3, the “Results: Ineffective (number of volunteers)” value (“Results: Ineffective” below) worked out at 2 and the “Results: Remarkably effective (number of volunteers)” value (from here on “Results: Remarkably effective”) was 5. In the data set on melasma on human face (1% in hydrophilic ointment), the “Results: Effective” value amounted to 2, the “Results: Ineffective” value was found to be 0 and the “Results: Remarkably effective” value is 8. The Mutagenicity result in “Mutagenicity” is given as “no mutagenicity”. In data set [6], the “Germicidal action and antibiotic-like action” value is “deficient in germicidal action and antibiotic-like action”. Further, the Reducing action entry in the data set “Reducing action” is given as “weak reducing action”.

On to `CCCCCCCCCCCCCCCC(=O)Oc1coccc1=O` [3-palmitoyloxy-4(H)--pyran-4-one, 3-palmitoyloxy-4(H)-pyran-4-one], for which the “Ratio of formation of 3-hydroxy-4(H)--pyran-4-one, Bacterial lipase (purified)” value in [2] is “±”. The “Ratio of formation of 3-hydroxy-4(H)--pyran-4-one, Homogenate Rat's skin” value in data set [3] was “++”. Also, the “Ratio of formation of 3-hydroxy-4(H)--pyran-4-one, Homogenate Rat's pancreas” value in data set [4] is listed as “++”. Moreover, in the data set with melasma on human face (0.5% in hydrophilic ointment), the “Results: Effective” value is recorded as 2, the “Results: Ineffective” value is 3 and the “Results: Remarkably effective” value came to 5. Also, in the data set on melasma on human face (1% in hydrophilic ointment), the “Results: Effective” value was found to be 4, the “Results: Ineffective” value is 0 and the “Results: Remarkably effective” value was determined as 6. Further, in the data set with melasma on human face (2% in hydrophilic ointment), the “Results: Effective” value was 2, the “Results: Ineffective” value came to 0 and the “Results: Remarkably effective” value came out at 8.

The values are drawn from patent publication US4545982A, “Pyranone compounds and skin-lightening cosmetic preparations or local demelanizing agents containing the same” (Yakurigaku Chuo Kenkyusho, priority 1982, dated 1985).
